Values of other authors as cited in patent US20110288042A1, “STABLE HIGHLY PURE AZACITIDINE AND PREPARATION METHODS THEREFOR” (CHEMAGIS LTD., priority 2007, published 2011).

Settings: reported; cited from earlier work

O=c1ncccn1[C@@H]1O[C@H](CO)[C@@H](O)[C@H]1O [zebularine]
Stability in aqueous solution: stable in aqueous solution
